Assay results as given in US12077503B2, “Substituted cyclic amides and their use as herbicides” (FMC CORPORATION, priority 2015, dated 2024).

Columns and labels:
Type in all cases: in vivo
[1] = system: giant foxtail (Setaria faberii); experiment: Test A postemergence
From the text: (§1) Seeds of plant species selected from barnyardgrass (Echinochloa crus-galli), Kochia (Kochia scoparia), ragweed (common ragweed, Ambrosia elatior), ryegrass, Italian (Italian ryegrass, Lolium multiflorum), crabgrass, large (Digitaria sanguinalis), giant foxtail (Setaria faberii), green foxtail (Setaria viridis), morningglory (Ipomoea spp.), pigweed (Amaranthus retroflexus), velvetleaf (Abutilon theophrasti), wheat (Triticum aestivum), and corn (Zea mays) were planted into a blend of loam soil and sand and treated preemergence with a directed soil spray using test chemicals formulated in anon-phytotoxic solvent mixture which included a surfactant.
(§2) At the same time, plants selected from these crop and weed species and also blackgrass (Alopecurus myosuroides), and Galium (catchweed bedstraw, Galium aparine) were planted in pots containing the same blend of loam soil and sand and treated with postemergence applications of test chemicals formulated in the same manner. Plants ranged in height from 2 to 10 cm and were in the one- to two-leaf stage for the postemergence treatment. Treated plants and untreated controls were maintained in a greenhouse for approximately 10 d, after which time all treated plants were compared to untreated controls and visually evaluated for injury. Plant response ratings, summarized in Table A, are based on a 0 to 100 scale where 0 is no effect and 100 is complete control. A dash (-) response means no test result.

[2] = system: wheat (Triticum aestivum); experiment: Test A postemergence
From the text: as §1, §2

[3] = system: Galium (catchweed bedstraw, Galium aparine); experiment: Test A postemergence
From the text: as §1, §2

[4] = system: ryegrass, Italian (Italian ryegrass, Lolium multiflorum); experiment: Test A postemergence
From the text: as §1, §2

[5] = system: blackgrass (Alopecurus myosuroides); experiment: Test A postemergence
From the text: as §1, §2

[6] = system: ragweed (common ragweed, Ambrosia elatior); experiment: Test A postemergence
From the text: as §1, §2

Kochia (Kochia scoparia) [7] = experiment: Test A postemergence
From the text: as §1, §2

[8] = system: pigweed (Amaranthus retroflexus); experiment: Test A postemergence
From the text: as §1, §2

[9] = system: barnyardgrass (Echinochloa crus-galli); experiment: Test A postemergence
From the text: as §1, §2

corn (Zea mays) = experiment: Test A postemergence
From the text: as §1, §2

[10] = system: giant foxtail (Setaria faberii); experiment: Test A preemergence; settings: Preemergence; for Plant response rating, Foxtail, Giant: 125 g ai/ha, visual injury after approximately 10 d, 0 to 100 scale where 0 is no effect and 100 is complete control; for Foxtail, Giant plant response rating (0 to 100 scale, 0 is no effect, 100 is complete control): 500 g ai/ha, visual injury approx. 10 d
From the text: as §1, §2

[11] = system: ryegrass, Italian (Italian ryegrass, Lolium multiflorum); experiment: Test A preemergence; settings: Preemergence; for Plant response rating, Ryegrass, Italian: 125 g ai/ha, visual injury after approximately 10 d, 0 to 100 scale where 0 is no effect and 100 is complete control; for Ryegrass, Italian plant response rating (0 to 100 scale, 0 is no effect, 100 is complete control): 500 g ai/ha, visual injury approx. 10 d
From the text: as §1, §2

[12] = system: ragweed (common ragweed, Ambrosia elatior); experiment: Test A preemergence; settings: Preemergence; for Plant response rating, Ragweed: 125 g ai/ha, visual injury after approximately 10 d, 0 to 100 scale where 0 is no effect and 100 is complete control; for Ragweed plant response rating (0 to 100 scale, 0 is no effect, 100 is complete control): 500 g ai/ha, visual injury approx. 10 d
From the text: as §1, §2

Kochia (Kochia scoparia) [13] = experiment: Test A preemergence; settings: Preemergence; for Plant response rating, Kochia: 125 g ai/ha, visual injury after approximately 10 d, 0 to 100 scale where 0 is no effect and 100 is complete control; for Kochia plant response rating (0 to 100 scale, 0 is no effect, 100 is complete control): 500 g ai/ha, visual injury approx. 10 d
From the text: as §1, §2

[14] = system: pigweed (Amaranthus retroflexus); experiment: Test A preemergence; settings: Preemergence; for Plant response rating, Pigweed: 125 g ai/ha, visual injury after approximately 10 d, 0 to 100 scale where 0 is no effect and 100 is complete control; for Pigweed plant response rating (0 to 100 scale, 0 is no effect, 100 is complete control): 500 g ai/ha, visual injury approx. 10 d
From the text: as §1, §2

[15] = system: barnyardgrass (Echinochloa crus-galli); experiment: Test A preemergence; settings: Preemergence; for Plant response rating, Barnyardgrass: 125 g ai/ha, visual injury after approximately 10 d, 0 to 100 scale where 0 is no effect and 100 is complete control; for Barnyardgrass plant response rating (0 to 100 scale, 0 is no effect, 100 is complete control): 500 g ai/ha, visual injury approx. 10 d
From the text: as §1, §2

[16] = 125 g ai/ha, postemergence, visual rating after approx. 10 d, 0 to 100 scale (0 no effect, 100 complete control)
[17] = Postemergence, 500 g ai/ha, 0 to 100 scale where 0 is no effect and 100 is complete control
[18] = 125 g ai/ha, postemergence, visual injury rating on 0 to 100 scale (0 no effect, 100 complete control), approx. 10 d

Which results are given for `O=C(Nc1cccc(F)c1F)C1C(=O)N(C2C=CCCC2)CC1c1cccc(C(F)(F)F)c1` (stereo not drawn) [Compound 525]?
Plant response rating, Foxtail, Giant [1, 16]: 20; Plant response rating, Foxtail, Giant [1, 17]: 60; Plant response rating, Wheat [2, 16]: 0; Plant response rating, Wheat [2, 17]: 0; Plant response rating, Galium [3, 16]: 0; Plant response rating, Galium [3, 17]: 0; Plant response rating, Ryegrass, Italian [4, 16]: 0; Plant response rating, Ryegrass, Italian [4, 17]: 0; Blackgrass plant response rating [5, 18]: 0; Plant response rating, Blackgrass [5, 17]: 30; Plant response rating, Ragweed [6, 16]: 0; Plant response rating, Ragweed [6, 17]: 0; Plant response rating, Kochia (Kochia (Kochia scoparia) [7]; [16]): 0; Plant response rating, Kochia (Kochia (Kochia scoparia) [7]; [17]): 0; Plant response rating, Pigweed [8, 16]: 0; Plant response rating, Pigweed [8, 17]: 0; Barnyardgrass plant response rating [9, 18]: 40; Plant response rating, Barnyardgrass [9, 17]: 40; Plant response rating, Corn (corn (Zea mays); [16]): 0; Plant response rating, Corn (corn (Zea mays); [17]): 0; Plant response rating, Foxtail, Giant [10]: 30; Foxtail, Giant plant response rating (0 to 100 scale, 0 is no effect, 100 is complete control) [10]: 70; Plant response rating, Ryegrass, Italian [11]: 0; Ryegrass, Italian plant response rating (0 to 100 scale, 0 is no effect, 100 is complete control) [11]: 0; Plant response rating, Ragweed [12]: 0; Ragweed plant response rating (0 to 100 scale, 0 is no effect, 100 is complete control) [12]: 0; Plant response rating, Kochia (Kochia (Kochia scoparia) [13]): 0; Kochia plant response rating (0 to 100 scale, 0 is no effect, 100 is complete control) (Kochia (Kochia scoparia) [13]): 0; Plant response rating, Pigweed [14]: 0; Pigweed plant response rating (0 to 100 scale, 0 is no effect, 100 is complete control) [14]: 0; Plant response rating, Barnyardgrass [15]: 30; Barnyardgrass plant response rating (0 to 100 scale, 0 is no effect, 100 is complete control) [15]: 50

Which results are given for `Cc1ccc(C2CN(C)C(=O)C2C(=O)Nc2ccccc2S(C)(=O)=O)c(F)c1` (stereo not drawn) [Compound 558]?
Plant response rating, Foxtail, Giant [1, 16]: 70; Plant response rating, Foxtail, Giant [1, 17]: 90; Plant response rating, Wheat [2, 16]: 0; Plant response rating, Wheat [2, 17]: 40; Plant response rating, Galium [3, 16]: 30; Plant response rating, Galium [3, 17]: 60; Plant response rating, Ryegrass, Italian [4, 16]: 0; Plant response rating, Ryegrass, Italian [4, 17]: 40; Plant response rating, Blackgrass [5, 16]: 20; Plant response rating, Blackgrass [5, 17]: 60; Plant response rating, Ragweed [6, 16]: 0; Plant response rating, Ragweed [6, 17]: 40; Plant response rating, Kochia (Kochia (Kochia scoparia) [7]; [16]): 20; Plant response rating, Kochia (Kochia (Kochia scoparia) [7]; [17]): 70; Plant response rating, Pigweed [8, 16]: 0; Plant response rating, Pigweed [8, 17]: 0; Plant response rating, Barnyardgrass [9, 16]: 80; Plant response rating, Barnyardgrass [9, 17]: 100; Plant response rating, Corn (corn (Zea mays); [16]): 0; Plant response rating, Corn (corn (Zea mays); [17]): 20; Plant response rating, Foxtail, Giant [10]: 90; Foxtail, Giant plant response rating (0 to 100 scale, 0 is no effect, 100 is complete control) [10]: 100; Plant response rating, Ryegrass, Italian [11]: 0; Ryegrass, Italian plant response rating (0 to 100 scale, 0 is no effect, 100 is complete control) [11]: 60; Plant response rating, Ragweed [12]: 50; Ragweed plant response rating (0 to 100 scale, 0 is no effect, 100 is complete control) [12]: 70; Plant response rating, Kochia (Kochia (Kochia scoparia) [13]): 70; Kochia plant response rating (0 to 100 scale, 0 is no effect, 100 is complete control) (Kochia (Kochia scoparia) [13]): 80; Plant response rating, Pigweed [14]: 30; Pigweed plant response rating (0 to 100 scale, 0 is no effect, 100 is complete control) [14]: 70; Plant response rating, Barnyardgrass [15]: 90; Barnyardgrass plant response rating (0 to 100 scale, 0 is no effect, 100 is complete control) [15]: 100

For `Cc1ccc(C2CN(C)C(=O)C2C(=O)Nc2ccc(F)cc2F)c(F)c1` (stereo not drawn) [Compound 559], which “Plant response rating, Foxtail, Giant” value [1, 16] is on record?
The value was 90.

And the “Plant response rating, Foxtail, Giant” value [1, 17]?
The value was 90.

And the “Plant response rating, Wheat” value [2, 16]?
Its value is 0.

And the “Plant response rating, Wheat” value [2, 17]?
The value was 50.

And the “Plant response rating, Galium” value [3, 16]?
The value was 50.

What about the “Plant response rating, Galium” value [3, 17] of the same compound?
Its value is 60.

What about the “Plant response rating, Ryegrass, Italian” value [4, 16] of the same compound?
Its value is 0.

What about the “Plant response rating, Ryegrass, Italian” value [4, 17] of the same compound?
Its value is 30.

And the “Plant response rating, Blackgrass” value [5, 16]?
Its value is 20.

And the “Plant response rating, Blackgrass” value [5, 17]?
Its value is 60.

And the “Plant response rating, Ragweed” value [6, 16]?
The value was 0.

What about the “Plant response rating, Ragweed” value [6, 17] of the same compound?
The value was 0.

And the “Plant response rating, Kochia” value (Kochia (Kochia scoparia) [7]; [16])?
The value was 30.

And the “Plant response rating, Kochia” value (Kochia (Kochia scoparia) [7]; [17])?
The value was 70.

What about the “Plant response rating, Pigweed” value [8, 16] of the same compound?
Its value is 0.

What about the “Plant response rating, Pigweed” value [8, 17] of the same compound?
The value was 0.

What about the “Plant response rating, Barnyardgrass” value [9, 16] of the same compound?
The value was 90.

What about the “Plant response rating, Barnyardgrass” value [9, 17] of the same compound?
The value was 100.

What about the “Plant response rating, Corn” value (corn (Zea mays); [16]) of the same compound?
The value was 0.

And the “Plant response rating, Corn” value (corn (Zea mays); [17])?
Its value is 30.

What about the “Plant response rating, Foxtail, Giant” value [10] of the same compound?
The value was 90.

What about the “Foxtail, Giant plant response rating (0 to 100 scale, 0 is no effect, 100 is complete control)” value [10] of the same compound?
Its value is 100.

And the “Plant response rating, Ryegrass, Italian” value [11]?
Its value is 0.

What about the “Ryegrass, Italian plant response rating (0 to 100 scale, 0 is no effect, 100 is complete control)” value [11] of the same compound?
Its value is 50.

And the “Plant response rating, Ragweed” value [12]?
The value was 0.

And the “Ragweed plant response rating (0 to 100 scale, 0 is no effect, 100 is complete control)” value [12]?
Its value is 20.

What about the “Plant response rating, Kochia” value (Kochia (Kochia scoparia) [13]) of the same compound?
Its value is 60.

And the “Kochia plant response rating (0 to 100 scale, 0 is no effect, 100 is complete control)” value (Kochia (Kochia scoparia) [13])?
The value was 80.

What about the “Plant response rating, Pigweed” value [14] of the same compound?
Its value is 20.

What about the “Pigweed plant response rating (0 to 100 scale, 0 is no effect, 100 is complete control)” value [14] of the same compound?
The value was 50.

What about the “Plant response rating, Barnyardgrass” value [15] of the same compound?
The value was 90.

And the “Barnyardgrass plant response rating (0 to 100 scale, 0 is no effect, 100 is complete control)” value [15]?
Its value is 100.
